Assay results published in patent US20200170291A1, “PROCESSES FOR PRODUCING LACTITOL GRANULATES AND GRANULATES PRODUCED THEREBY” (PARTICLE DYNAMICS INTERNATIONAL, LLC, priority 2017, published 2020).
Like-named read-outs stand apart in the source and are kept apart here.

How the values were obtained:
Format in all cases: physicochemical
Bulk density = assay: Bulk density
Experimental: (§1) Tapped density of the granulates of the present invention is typically at least about 0.6 g/mL, at least about 0.75 g/mL, at least about 0.80 g/mL, at least about 0.85 g/mL, or at least about 0.90 g/mL. Overall, the tapped density of the granulates of the present invention generally ranges from about 0.6 g/mL to about 1.0 g/mL, from about 0.7 g/mL to about 0.95 g/mL, or from about 0.8 g/mL to about 0.9 g/mL (e.g., about 0.85 g/mL). Bulk and tapped density as reported herein are determined by USP <616>, but it should be understood that other methods known in the art may be also be utilized to determine the tapped densities of compositions of the present invention.
(§2) Tare a 250 mL graduated glass cylinder. Fill with 100 grams of sample. Reweigh to determine weight. Record Initial Volume. The bulk density is the weight in grams divided by the volume (mL). Tap 1000 times by the automated tapping device. Read final volume. The tapped density is the weight in grams divided by the tapped volume (mL).

Tapped density = assay: Tapped density
Experimental: as §1, §2

[1] = Moisture, loss on drying (LOD), halogen moisture balance; conditions: final / as dried material
Source text: Unless otherwise indicated, the following equipment was used in Examples 1a and 1b: R&D TURBULIZER High Shear Granulator, Model TCB; Large ACCURATE Powder Feeder; AEROMATIC Fluid Bed Dryer, Model S-2; ADMIX High Shear Mixer; SWECO Vibratory Sieve, 18″; STURTEVANT MICRONIZER Jet Mill, Model 45DM; Halogen Moisture Balance (to determine moisture levels); MALVERN MASTERSIZER 2000 (particle size analyzer); ROTAP particle size analyzer; and a Tapped Density Tester.
A sample of lactitol monohydrate (DANISCO) was evaluated for particle size moisture (loss on drying (LOD)), bulk density, and tapped density. […] A photo micrograph of the material was also generated (FIG. 2).
At approximately 125 g/min, the expected moisture level would be approximately 3.4%. However, at this initial binder flow rate, the granulation exiting the mixer felt too dry and was not as granular as desired. […] The final setting was 37 Hz or approximately 140 g/min. At this binder flow rate the expected granulation moisture level would be approximately 3.8%. No additional adjustments were made to the operating conditions over the remainder of the run. The final wet granulation moisture was approximately 2%. In order to improve the accuracy of the LOD moisture results the moisture balance test conditions were altered.
The expected moisture level at this setting would be approximately 4%. […]

[2] = MALVERN MASTERSIZER 2000 particle size (d10, d50, d90); conditions: for d50: after U5 COMIL, 0.032″ round hole screen
Experimental: (§3) All particle size (PS) analyses were conducted using a ROTAP Particle Size Analyzer and a MALVERN MASTERSIZER 2000, except as otherwise indicated. All particle size data were measured in microns and analyzed via the MALVERN MASTERSIZER 2000.

[3] = ROTAP sieve particle size distribution (% retained); conditions: for Particle Size Distribution (% Retained) 12: 12 mesh screen; for Particle Size Distribution (% Retained) 20: 20 mesh screen; for Particle Size Distribution (% Retained) 40: 40 mesh screen; for Particle Size Distribution (% Retained) 60: 60 mesh screen; for Particle Size Distribution (% Retained) 80: 80 mesh screen; for Particle Size Distribution (% Retained) 100: 100 mesh screen; for Particle Size Distribution (% Retained) 200: 200 mesh screen; for Particle Size Distribution (% Retained) Pan: receiving pan
Experimental: as §3
Particle Size: During the granulation process, an approximately 300 g sample is taken from material of the finished product drum starting with the first drum and every sixth drum thereafter, including the last drum (i.e. drum #1, 7, 13, 19 etc.). […] Each fraction was weighed and percent retained was calculated.

[4] = HANSON FLODEX powder flowability (viscosity)
Source text: Samples were also subjected to flowability testing using a HANSON FLODEX Powder Flowability tester. The basis for the method is the powders ability to fall freely through a hole in a plate. The diameter of the smallest hole through which the powder passes is considered the flowability index. The flowability index (radius of hole size in cm) along with the bulk density of the material tested are then used to determine the viscosity (internal friction coefficient) of the powder. Lower powder viscosity indicates better flowability.
Samples of the finished lactitol granulations produced during execution of the commercial optimization protocol were also evaluated for flow using the HANSON Intrinsic Flowability Test. During the test, the smallest hole (in millimeters) that the product will flow through is determined in the FLODEX apparatus. Using this information and the bulk density of each powder (as determined in a 250 mL graduated cylinder) the coefficient of friction or viscosity (K) was calculated. The viscosity K (in poises) is equal to 490 (½ the acceleration of gravity) times the radius of the hole in centimeters times the bulk density of the sample. The result K is then multiplied by 100 to express the viscosity in centipoises.

[5] = Moisture content by Karl Fischer (KF)
Experimental: As noted, lactitol exists in the monohydrate, dihydrate, trihydrate, and hexahydrate forms. Lactitol monohydrate is the preferred form of lactitol for use. Lactitol monohydrate is defined by the EU-NP and USP-NF as having moisture content of between 4.5 wt % and 5.5 wt %. As used herein, the term “moisture content” refers to the total moisture content of a composition, including both free and bound water. Moisture contents reported here are determined by the Karl-Fischer (KF) method, but may also be determined by other suitable methods known in the art.
During the weighing of the ingredients for the binder solution and during the set up for granulation, an approximately 100 g sample representing each raw material is taken and placed into an appropriately labeled container. An approximately 0.3 gram sample is dispersed in methanol and test using a Karl Fischer moisture analyzer with HYDRANAL Composite 5 titrant using a 60 sec extraction time. Percent moisture was reported.
For each Qualification lot, at the beginning and middle of each shift samples were pulled using a sample thief from three locations within the tub after granulation but before drying. These samples were tested for moisture as described above.
Moisture content was also tested using the same procedure after the second drying step.

Structure (SMILES)	Bulk Density (Bulk density) [g/mL]	Tapped Density (Tapped density) [g/mL]	Moisture NMT 3.0% [1] [%]	PS d10 [2] [μ]	PS d50 [2] [μ]	PS d90 [2] [μ]	Particle Size Distribution (% Retained) 12 [3] [%]	Particle Size Distribution (% Retained) 20 [3] [%]	Particle Size Distribution (% Retained) 40 [3] [%]	Particle Size Distribution (% Retained) 60 [3] [%]	Particle Size Distribution (% Retained) 80 [3] [%]	Particle Size Distribution (% Retained) 100 [3] [%]	Particle Size Distribution (% Retained) 200 [3] [%]	Particle Size Distribution (% Retained) Pan [3] [%]	other results
O.OC[C@@H](O)[C@@H](O[C@@H]1O[C@H](CO)[C@H](O)[C@H](O)[C@H]1O)[C@H](O)[C@@H](O)CO [Raw Lactitol B]	0.677	0.754	1.28	94.2	365.3	720.3	0.0	0.3	64.4	29.9	3.6	0.7	0.8	0.3	–
OC[C@@H](O)[C@@H](O[C@H]1O[C@H](CO)[C@H](O)[C@H](O)[C@H]1O)[C@H](O)[C@@H](O)CO [Raw Lactitol, 4-O-α-D-Galactopyranosyl-D-glucitol]	0.798	0.925	0.61	112.4	426.1	922.8	0.0	10.0	57.0	26.3	4.0	0.9	1.3	0.5	Tapped Density (Tapped density; listed as Raw Lactitol A): 0.925 g/mL; Tapped Density (Tapped density; listed as lactitol monohydrate): 0.93 g/mL; Particle Size Span [2]: 1.9; d50 (mean particle size by volume distribution) [2]: 426 microns; d50 ([2]; round bar impeller, 1500 rpm): 235 microns; d50 ([2]; round bar impeller, 1800 rpm): 196 microns; d50 ([2]; square bar impeller, 4200 rpm): approximately 115 microns; Flow Viscosity [4]: ~10 CPS (×1000); viscosity (flowability) [4]: approximately 9,776 cps; KF moisture [5]: 4.93%
